Data set [1] concerns skin of female albino New Zealand White rabbits. The data set is described as follows: Rabbit skin irritation. The note with it: per rabbit, 24, 48 and 72 hour observations, two test sites, sulfate. As to the method:
Within 24 hours to 4 hours before test application, the backs of female albino New Zealand White rabbits were clipped free of hair, exposing 2 test and 2 control areas on each side of the spine with a size of approximately 15 cm×15 cm. The two test sites are located on the left cranial section and the right caudal section of the dorsal region. The two control sites are located on the left caudal and right cranial section of the dorsal region. FIG. 4 depicts the arrangement of test and control sites. The exposed skin is wiped with alcohol and dried. Rabbits of acceptable skin quality were selected and used for testing.
A 25×25 mm gauze patch saturated with 0.5 mL of 0.9% NaCl is used for the control and applied to the clipped control sites. The patches are secured using hypoallergenic, waterproof, surgical tape over the test and control sites. The animal's trunk is securely wrapped so as to maintain the position of the patches. Patches are left applied for a minimum of four hours.
After patch removal, the test and control sites were then scored for erythema and edema at 1, 24, 48 and 72 hours after patch removal. Only the 24, 48, and 72 hour observations were scored and used for calculations. If no response was expected, testing was conducted using three animals per test article. If irritation was anticipated, one animal was tested initially. If the first animal received a score of 2 or less for either erythema or edema, 2 additional rabbits were used to conclude the test.
This total was divided by the total number of observations. The same was done for the control sites. […] These scores for each animal were added and divided by the total number of animals to give the Primary Irritation Index. […] For any response, the Maximum Irritation Response, the time of onset of the response and the time of maximum response was recorded.
To positively validate the test, 10% sodium dodecyl sulfate (SDS), which is a known dermal irritant, in petroleum jelly was applied to a 2.5 cm×2.5 cm gauze patch. As a negative control, 0.5 mL of 0.9% NaCl was applied to a 2.5 cm×2.5 cm gauze patch. […]

For data set [2], the system named is human subjects having onychomycosis. The conditions noted are these: comparison value for standard of care; cited from earlier work.

Values joined by “and” are separate entries in the source; they are usually repeats but may differ in a detail not shown here. Equal entries are not always repeated.

In the case of `CCCCCCCCCCCCOS(=O)(=O)[O-].[Na+]` [10% SDS, sodium dodecyl sulfate], in data set [1] (patch at least four hours), the “ED (edema) score total” value was 19 and 21 and 14; the “ER (erythema) score total” value was 21 and 23 and 18. Further, in data set [1], the “ER + ED = Total” value is 40 and 44 and 32.

In the case of `CN(C/C=C/C#CC(C)(C)C)Cc1cccc2ccccc12` [Lamisil], the “effectiveness of standard of care treatments” value in data set [2] was 20%.
